“Also recorded” adds a separate entry of the source.
How the values were obtained:
[1] = Glycemic control in STZ-induced diabetic rats; type: in vivo, rat; conditions: insulin pump, within several hours
Experimental: Male Sprague-Dawley rats weighing 270-290 g were housed in a room under controlled temperature conditions (22° C.) and 12/12-hr of light/dark cycles. Diabetes was induced with 80 mg/kg streptozotocin (STZ) (Sigma-Aldrich) dissolved in citrate buffer (20 mM, pH 4.5) that was administered as a single intraperitoneal injection. Control rats were injected with an equivalent volume of the vehicle only. After injection (24 h), diabetes was diagnosed by the development of hyperglycaemia (>14 mmol/L blood glucose). One-half of the diabetic rats were randomly selected to receive insulin treatment (Linplant, one implant/200 g body wt; LinShin, Canada). […] […] All experiments were conducted in accordance with the PC-2 procedure of Institute of Medical and Veterinary Science (IMVS) and approved by the IMVS Animal Ethics Committee.

SphK = SphK activity in aorta and heart of STZ-induced diabetic rats; type: in vivo, rat; conditions: STZ-induced diabetic rats treated with insulin, 2 wk post-onset of diabetes
Experimental: Male Sprague-Dawley rats weighing 270-290 g were housed in a room under controlled temperature conditions (22° C.) and 12/12-hr of light/dark cycles. Diabetes was induced with 80 mg/kg streptozotocin (STZ) (Sigma-Aldrich) dissolved in citrate buffer (20 mM, pH 4.5) that was administered as a single intraperitoneal injection. Control rats were injected with an equivalent volume of the vehicle only. After injection (24 h), diabetes was diagnosed by the development of hyperglycaemia (>14 mmol/L blood glucose). One-half of the diabetic rats were randomly selected to receive insulin treatment (Linplant, one implant/200 g body wt; LinShin, Canada). Blood glucose levels were monitored every 4 days using Glucostix reagent strips (Boehringer Mannheim, Indianapolis, Ind.). Two weeks after the onset of diabetes, rats were killed for the study. […]
As described previously (Xia et al., 1999, J. Biol. Chem. 274:34499-34505), SphK activity was routinely determined using D-erythro-sphingosine (Biomol, Plymouth Meeting, Pa.) and [γ^32P]ATP (Geneworks, Adelaide, Australia) as substrates, and defined as picomoles of S1P formed per min per mg protein. The formation of S1P in vivo was measured in the permeabilized cells as previously described (Xia et al., 1998, Proc. Natl. Acad. Sci. U.S.A 95:14196-14201).

sphingosine kinase = assay: Sphingosine kinase activity in vitro (vascular endothelial cells); type: cell-based

## insulin
[1]
  glycemic control: near euglycemia
SphK
  SphK activity in aorta of diabetic rats: significant reduction; also recorded: completely prevented
  SphK activity in heart of diabetic rats: significant reduction; also recorded: completely prevented
Sphingosine kinase
  inhibitory effect on sphingosine kinase activity in vitro: no inhibitory effect

Source: patent US20080279897A1, “Method of Treating Cellular Damage” (MEDVET SCIENCE PTY. LTD., priority 2005, published 2008)
